From BindingDB's records for doi:10.1016/s0960-894x(02)00236-6 (University of Virginia, 2002) come the findings set out here.

A short description of test [1]: AE maximal score at Adenosine A2A receptor.
The nature of test [2]: AE maximal score at Adenosine A3 receptor.
Test [3] is described as follows: AE maximal score at Adenosine A1 receptor.

Consider `COc1cc2c(cc1OC)-c1nc(N)sc1C2`, for which the EC50 in test [1] came to 1 pM; in test [2] it was 794 µM.

Molecule `COc1ccc2c(c1)CCc1sc(N)nc1-2` came in with an EC50 in test [3] of 0.002 µM. Still for that read-out and setting: to `CC(=O)Oc1ccc2c(c1)CCc1sc(N)nc1-2` belongs 158 µM.
